Where a SMILES comes first, the peptide text is derived from it.
How the values were obtained:
HeLa [1] = experiment: Cellular uptake in human HeLa cell vesicular compartments at 50 uM after 60 mins using Hoechst H33342 dye by fluorescence microscopy analysis; assay type: ADME, cell-based; settings: 1 h
HT-29 [2] = experiment: Cellular uptake in human HT-29 cell vesicular compartments at 25 uM after 60 mins using Hoechst H33342 dye by fluorescence microscopy analysis; assay type: ADME, cell-based; settings: ht-29, 1 h
MCF7 [3] = experiment: Cellular uptake in human MCF7 cells at 25 uM after 60 mins by flow cytometry; assay type: ADME, cell-based; settings: mcf7, 1 h
HeLa [4] = experiment: Cellular uptake in human HeLa cells at 25 uM after 60 mins by flow cytometry; assay type: ADME, cell-based; settings: 1 h
MCF7 [5] = experiment: Cellular uptake in human MCF7 cell vesicular compartments at 50 uM after 60 mins using Hoechst H33342 dye by fluorescence microscopy analysis; assay type: ADME, cell-based; settings: mcf7, 1 h
[6] = target: Serine/threonine-protein kinase PLK1 (Homo sapiens, UniProt P53350); experiment: Binding affinity to human polo-box domain of PLK1 after 1 hr by fluorescence polarization-based assay
Sequence of Serine/threonine-protein kinase PLK1 (P53350 whole entry, the tested form may be a part): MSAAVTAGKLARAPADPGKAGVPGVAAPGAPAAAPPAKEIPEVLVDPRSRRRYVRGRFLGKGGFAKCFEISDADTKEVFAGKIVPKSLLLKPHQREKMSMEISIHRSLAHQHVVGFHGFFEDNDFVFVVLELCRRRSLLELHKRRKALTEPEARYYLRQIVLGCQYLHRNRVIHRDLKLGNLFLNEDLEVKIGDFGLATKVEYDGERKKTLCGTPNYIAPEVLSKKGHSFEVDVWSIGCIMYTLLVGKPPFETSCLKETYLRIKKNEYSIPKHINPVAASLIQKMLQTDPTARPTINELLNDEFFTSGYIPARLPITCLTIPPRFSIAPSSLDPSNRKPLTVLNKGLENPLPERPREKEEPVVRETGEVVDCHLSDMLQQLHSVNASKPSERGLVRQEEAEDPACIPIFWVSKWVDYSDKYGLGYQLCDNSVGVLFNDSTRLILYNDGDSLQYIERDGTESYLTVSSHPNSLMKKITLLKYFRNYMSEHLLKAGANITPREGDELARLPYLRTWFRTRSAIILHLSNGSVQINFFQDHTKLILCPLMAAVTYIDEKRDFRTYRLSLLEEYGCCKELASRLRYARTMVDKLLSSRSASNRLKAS

HT-29 [7] = experiment: Cellular uptake in human HT-29 cells at 25 uM after 60 mins by flow cytometry; assay type: ADME, cell-based; settings: ht-29, 1 h
FaDu = experiment: Cellular uptake in human FADU cells assessed per mg of protein; assay type: ADME, cell-based
HT-29 [8] = experiment: Cellular uptake in human HT-29 cells assessed per mg of protein; assay type: ADME, cell-based
MCF7 [9] = experiment: Toxicity in human MCF7 cells at up to 100 uM after 24 hrs; assay type: cell-based; settings: mcf7, 24 h
HeLa [10] = experiment: Toxicity in human HeLa cells at up to 100 uM after 24 hrs; assay type: cell-based
MCF7 [11] = experiment: Cellular uptake in human MCF7 cells at 25 uM after 60 mins by flow cytometry relative to cellular uptake in human HeLa cells; assay type: ADME, cell-based; settings: mcf7, 1 h
HT-29 [12] = experiment: Toxicity in human HT-29 cells at up to 100 uM after 24 hrs; assay type: cell-based; settings: ht-29, 24 h
HT-29 [13] = experiment: Cellular uptake in human HT-29 cells at 25 uM after 60 mins by flow cytometry relative to cellular uptake in human HeLa cells; assay type: ADME, cell-based; settings: ht-29, 1 h
MCF7 [14] = experiment: Cellular uptake in human MCF7 cell nucleus at 50 uM after 60 mins using Hoechst H33342 dye by fluorescence microscopy analysis; assay type: ADME, cell-based; settings: mcf7, 1 h

Drug uptake (HeLa [1])	Drug uptake (HT-29 [2])	Drug uptake (MCF7 [3])	Drug uptake (HeLa [4])	Drug uptake (MCF7 [5])	Kd [6] [nM]	Drug uptake (HT-29 [7])	Drug uptake (FaDu) [%ID]	Drug uptake (HT-29 [8]) [%ID]	Drug uptake (MCF7 [11]) [%]	Drug uptake (HT-29 [13]) [%]	Drug uptake (MCF7 [14])	SMILES	Activity (MCF7 [9])	Activity (HeLa [10])	Activity (HT-29 [12])
Not Active	Not Active	Not Active	Not Active	Not Active	93	Active						CSCC[C@H](NC(=O)c1ccc2c(c1)C1(OC2=O)c2ccc(O)cc2Oc2cc(O)ccc21)C(=O)N[C@@H](CCC(N)=O)C(=O)N[C@@H](CO)C(=O)N[C@H](C(=O)N1CCC[C@H]1C(=O)N[C@@H](CC(C)C)C(=O)O)[C@@H](C)OP(=O)(O)O			
							< 1	< 1				CSCC[C@H](NC(=O)c1ccc([18F])cc1)C(=O)N[C@@H](CCC(N)=O)C(=O)N[C@@H](CO)C(=O)N[C@H](C(=O)N1CCC[C@H]1C(=O)N[C@@H](CC(C)C)C(=O)O)[C@@H](C)OP(=O)(O)O			
Active	Active	Active	Active	Active	256	Active			15	15		CC[C@H](C)[C@H](NC(=O)[C@H](CCCCN)NC(=O)[C@H](CC(N)=O)NC(=O)[C@H](CCCN=C(N)N)NC(=O)[C@H](Cc1ccccc1)NC(=O)[C@H](CCCCN)NC(=O)[C@H](CCCN=C(N)N)NC(=O)[C@H](CC(C)C)NC(=O)[C@H](CCCN=C(N)N)NC(=O)[C@H](CCCCN)NC(=O)[C@H](CCCN=C(N)N)NC(=O)[C@H](CC(C)C)NC(=O)CNC(=O)[C@H](CC(C)C)NC(=O)[C@@H]1CCCN1C(=O)[C@@H](NC(=O)[C@H](CO)NC(=O)[C@H](CCC(N)=O)NC(=O)[C@H](CCSC)NC(=O)c1ccc2c(c1)C1(OC2=O)c2ccc(O)cc2Oc2cc(O)ccc21)[C@@H](C)OP(=O)(O)O)C(=O)N[C@@H](CCCCN)C(=O)N[C@@H](CCC(=O)O)C(=O)N[C@@H](CCCCN)C(N)=O (HELM PEPTIDE1{[O=C1OC2(c3ccc(O)cc3Oc3cc(O)ccc32)c2cc(C(=O)[*:2])ccc21].M.Q.S.[C[C@@H](OP(=O)(O)O)[C@H](N[*:1])C(=O)[*:2]].P.L.G.L.R.K.R.L.R.K.F.R.N.K.I.K.E.K.[am]}$$$$V2.0)	Non-toxic	Non-toxic	Non-toxic
Active	Active	Active	Active	Active	326	Active			15	15	Active	CC[C@H](C)[C@H](NC(=O)[C@H](C)NC(=O)[C@@H](NC(=O)[C@H](CCC(N)=O)NC(=O)[C@@H]1CCCN1C(=O)[C@H](Cc1ccccc1)NC(=O)[C@@H](NC(=O)[C@H](Cc1cnc[nH]1)NC(=O)[C@H](Cc1ccccc1)NC(=O)[C@H](CCCCNC(=O)[C@H](C)NC(=O)[C@H](Cc1ccccc1)NC(=O)[C@H](CCCCN)NC(=O)[C@H](CCCNC(=N)N)NC(=O)[C@H](CCCCN)NC(=O)[C@H](CCCCN)NC(=O)[C@H](CCCCN)NC(=O)[C@@H]1CCCN1C(=O)[C@H](C)NC(=O)[C@H](CCCCN)NC(=O)[C@H](CCCNC(=N)N)NC(=O)[C@H](CCCCN)NC(=O)[C@@H](N)CCCCN)NC(=O)[C@H](CC(C)C)NC(=O)[C@@H]1CCCN1C(=O)[C@@H](NC(=O)[C@H](CO)NC(=O)[C@H](CCC(N)=O)NC(=O)[C@H](CCSC)NC(=O)c1ccc2c(c1)C1(OC2=O)c2ccc(O)cc2Oc2cc(O)ccc21)[C@@H](C)OP(=O)(O)O)[C@@H](C)O)[C@@H](C)O)C(=O)NCC(=O)N[C@H](C(=O)NCC(=O)N[C@@H](C)C(=O)N1CCC[C@H]1C(N)=O)C(C)C (HELM PEPTIDE1{[O=C1OC2(c3ccc(O)cc3Oc3cc(O)ccc32)c2cc(C(=O)[*:2])ccc21].M.Q.S.[C[C@@H](OP(=O)(O)O)[C@H](N[*:1])C(=O)[*:2]].P.L.K.F.H.T.F.P.Q.T.A.I.G.V.G.A.P.[am]}|PEPTIDE2{K.K.R.K.A.P.K.K.K.R.K.F.A}$PEPTIDE1,PEPTIDE2,8:R3-13:R2$$$V2.0)	Non-toxic	Non-toxic	Non-toxic

From ChEMBL document CHEMBL1806475, “Phosphopeptides with improved cellular uptake properties as ligands for the polo-box domain of polo-like kinase 1” (Bioorg Med Chem Lett, 2011)
